Results as given in the NIST ThermoML archive (doi:10.1016/j.jct.2009.02.002).

Assay: xn = mol fraction of the nth substance listed
Details: 101 kPa, Liquid; for viscosity: Capillary tube (Ostwald / Ubbelohde) method; for mass density: Vibrating tube method; for speed of sound: automatically measured using an Anton Paar DSA 5000 instrument

CC(C)CCCC(C)CCCC(C)CCCCC(C)CCCC(C)CCCC(C)C (configuration not stated) [2,6,10,15,19,23-hexamethyltetracosane] + CC(C)CO
Details | mass density, 298.15 K [kg/m3] | mass density, 303.15 K [kg/m3] | mass density, 308.15 K [kg/m3] | speed of sound, 298.15 K [m/s] | speed of sound, 303.15 K [m/s] | speed of sound, 308.15 K [m/s] | viscosity, 298.15 K [mPa·s] | viscosity, 303.15 K [mPa·s] | viscosity, 308.15 K [mPa·s]
x2 = 0.0803 | 804.648 | 801.388 | 798.13 | 1377 | 1359.1 | 1341.4 | 23.81 | 18.82 | 15.28
x2 = 0.1032 | 804.528 | 801.259 | 797.982 | 1375.6 | 1357.7 | 1340 | 22.85 | 18.11 | 14.72
x2 = 0.1672 | 804.219 | 800.916 | 797.596 | 1371.4 | 1353.4 | 1335.6 | 20.71 | 16.5 | 13.45
x2 = 0.2045 | 804.051 | 800.733 | 797.401 | 1368.7 | 1350.8 | 1332.9 | 19.78 | 15.78 | 12.85
x2 = 0.2551 | 803.824 | 800.484 | 797.129 | 1364.9 | 1347.2 | 1329.2 | 18.76 | 14.97 | 12.18
x2 = 0.3201 | 803.546 | 800.183 | 796.807 | 1359.9 | 1341.8 | 1324 | 17.7 | 14.12 | 11.47
x2 = 0.417 | 803.131 | 799.716 | 796.307 | 1351.3 | 1333.4 | 1315.5 | 16.34 | 12.99 | 10.54
x2 = 0.4978 | 802.728 | 799.277 | 795.831 | 1343.1 | 1325.1 | 1307.2 | 15.11 | 12 | 9.757
x2 = 0.6316 | 801.934 | 798.413 | 794.872 | 1325.5 | 1307.7 | 1290.1 | 12.54 | 9.98 | 8.196
x2 = 0.7005 | 801.422 | 797.855 | 794.26 | 1313.6 | 1295.9 | 1278.1 | 10.9 | 8.721 | 7.217
x2 = 0.8028 | 800.494 | 796.852 | 793.147 | 1289.2 | 1271.7 | 1254.1 | 8.199 | 6.648 | 5.581
x2 = 0.8482 | 800.015 | 796.317 | 792.582 | 1274.6 | 1257.1 | 1239.6 | 6.959 | 5.693 | 4.802
x2 = 0.9095 | 799.392 | 795.551 | 791.791 | 1248.9 | 1231.6 | 1214.3 | 5.361 | 4.404 | 3.728
x2 = 0.9448 | 799.012 | 795.162 | 791.339 | 1229.5 | 1212.5 | 1195.4 | 4.53 | 3.703 | 3.115

CCCCCCCCCCCCCCCC [hexadecane] + CC(C)CO
Details | mass density, 298.15 K [kg/m3] | mass density, 303.15 K [kg/m3] | mass density, 308.15 K [kg/m3] | speed of sound, 298.15 K [m/s] | speed of sound, 303.15 K [m/s] | speed of sound, 308.15 K [m/s] | viscosity, 298.15 K [mPa·s] | viscosity, 303.15 K [mPa·s] | viscosity, 308.15 K [mPa·s]
x2 = 0.0505 | 770.506 | 766.982 | 763.479 | 1333.6 | 1314.5 | 1296.1 | 2.807 | 2.494 | 2.233
x2 = 0.108 | 770.704 | 767.145 | 763.586 | 1328.2 | 1309.5 | 1291.1 | 2.658 | 2.345 | 2.102
x2 = 0.1539 | 770.945 | 767.37 | 763.784 | 1324.2 | 1305.5 | 1287 | 2.601 | 2.277 | 2.023
x2 = 0.2202 | 771.403 | 767.797 | 764.189 | 1318.4 | 1299.8 | 1281.3 | 2.576 | 2.246 | 1.975
x2 = 0.2709 | 771.834 | 768.215 | 764.58 | 1313.8 | 1295.1 | 1276.6 | 2.596 | 2.235 | 1.952
x2 = 0.3389 | 772.519 | 768.878 | 765.22 | 1307.3 | 1288.7 | 1270.2 | 2.638 | 2.252 | 1.946
x2 = 0.4112 | 773.437 | 769.755 | 766.075 | 1299.9 | 1281.3 | 1262.8 | 2.672 | 2.292 | 1.967
x2 = 0.5043 | 774.946 | 771.22 | 767.482 | 1289.8 | 1271.2 | 1252.8 | 2.694 | 2.296 | 1.985
x2 = 0.5989 | 776.918 | 773.158 | 769.37 | 1277.8 | 1259.3 | 1241 | 2.676 | 2.295 | 1.998
x2 = 0.6938 | 779.505 | 775.707 | 771.873 | 1263.6 | 1245.3 | 1227.4 | 2.643 | 2.274 | 1.984
x2 = 0.8115 | 783.946 | 780.177 | 776.274 | 1241.5 | 1223.8 | 1206.2 | 2.673 | 2.28 | 2
x2 = 0.8638 | 786.74 | 782.888 | 778.972 | 1229.5 | 1211.9 | 1194.4 | 2.756 | 2.322 | 2.009
x2 = 0.9037 | 789.326 | 785.457 | 781.543 | 1219 | 1201.6 | 1184.3 | 2.874 | 2.379 | 2.046
x2 = 0.938 | 792.003 | 788.12 | 784.196 | 1209.3 | 1192.2 | 1175.2 | 3.023 | 2.469 | 2.082
